Laboratory results taken from US10633407B2, “14-membered ketolides and methods of their preparation and use” (President and Fellows of Harvard College, priority 2014, dated 2020).
Values after ≈ are worked out from the molar mass of the structure shown.

Assays:
Assay in all cases: CLSI broth dilution MIC determination
Assay type in all cases: cell-based
S. aureus MRSA: USA300 = conditions: S. aureus MRSA: USA300; Gram-positive
In short: (§1)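 Broth dilution MICs determined by CLSI standard procedures across a strain panel that includes multidrug- and macrolide-resistant strains. Resistance genotypes may be constitutive or inducible.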

S. aureus USA600, GISA = conditions: S. aureus USA600, GISA; Gram-positive
In short: as §1

H. influenzae ATCC49247 = conditions: Gram-negative
In short: as §1

S. pneumoniae ATCC 49619 = conditions: S. pneumoniae ATCC 49619; Gram-positive
In short: as §1

S. aureus MRSA: USA100 = conditions: S. aureus MRSA: USA100; Gram-positive
In short: as §1

[1] = test system: S. pneumoniae mef A genotype (second strain so labelled); conditions: Gram-positive
In short: as §1

E. coli ATCC 25922 = conditions: E. coli ATCC 25922; Gram-negative
In short: as §1

S. aureus ATCC 29213 = conditions: S. aureus ATCC 29213; Gram-positive
In short: as §1

E. coli NDM-1 = conditions: Gram-negative
In short: as §1

E. coli CTX-M-14 = conditions: Gram-negative
In short: as §1

E. coli TEM-1 = conditions: E. coli TEM-1; Gram-negative
In short: as §1

[2] = test system: S. pneumoniae erm B + mef A genotype; conditions: S. pneumoniae erm B + mef A genotype; Gram-positive
In short: as §1

S. aureus erm A genotype = conditions: S. aureus erm A genotype; Gram-positive
In short: as §1

K. pneumoniae TEM-10 = conditions: Gram-negative
K. pneumoniae KPC-2 = conditions: Gram-negative
[3] = test system: A. baumannii imipenem-resistant; conditions: Gram-negative
K. pneumoniae ATCC 10031 = conditions: K. pneumoniae ATCC 10031; Gram-negative
A. baumannii IMP-4 = conditions: Gram-negative
P. aeruginosa ATCC 27853 = conditions: P. aeruginosa ATCC 27853; Gram-negative
[4] = test system: H. influenzae Erythro >4, Azithro 1; conditions: H. influenzae Erythro >4, Azithro 1; Gram-negative
Excerpt: MIC data was collected for the novel macrolides that this platform has produced against over 21 unique strains of B. subtilis, E. coli, S. aureus, S. pneumoniae, and H. influenzae, including several multidrug-resistant strains, with a special focus on macrolide resistant mechanisms (vide supra). […] CLSI standard procedures for broth dilution MIC determination were used. […] These genotypes can be constitutive or inducible.

[5] = test system: S. pyogenes Macrolide-resistant; conditions: S. pyogenes Macrolide-resistant; Gram-positive
K. pneumoniae SHV-12 = conditions: Gram-negative
A. baumannii ATCC 19606 = conditions: A. baumannii ATCC 19606; Gram-negative
[6] = test system: A. baumannii chromosomal class C; conditions: Gram-negative
S. pyogenes ATCC 19615 = conditions: S. pyogenes ATCC 19615; Gram-positive
E. faecalis ATCC 29212 = conditions: E. faecalis ATCC 29212; Gram-positive
[7] = test system: E. faecalis Vancomycin-resistant; conditions: E. faecalis Vancomycin-resistant; Gram-positive
[8] = test system: P. aeruginosa HPA101-1477; conditions: Gram-negative

| SMILES | MIC (S. aureus MRSA: USA300) [µg/mL] | MIC (S. aureus USA600, GISA) [µg/mL] | MIC (H. influenzae ATCC49247) [µg/mL] | MIC (S. pneumoniae ATCC 49619) [µg/mL] | MIC (S. aureus MRSA: USA100) [µg/mL] | MIC [1] [µg/mL] | MIC (E. coli ATCC 25922) [µg/mL] | MIC (S. aureus ATCC 29213) [µg/mL] | MIC (E. coli NDM-1) [µg/mL] | MIC (E. coli CTX-M-14) [µg/mL] | MIC (E. coli TEM-1) [µg/mL] | MIC [2] [µg/mL] | MIC (S. aureus erm A genotype) [µg/mL] | MIC (K. pneumoniae TEM-10) [µg/mL] | MIC (K. pneumoniae KPC-2) [µg/mL] | MIC [3] [µg/mL] | MIC (K. pneumoniae ATCC 10031) [µg/mL] | MIC (A. baumannii IMP-4) [µg/mL] | MIC (P. aeruginosa ATCC 27853) [µg/mL] | MIC [4] [µg/mL] | also measured |
| --- | --- | --- | --- | --- | --- | --- | --- | --- | --- | --- | --- | --- | --- | --- | --- | --- | --- | --- | --- | --- | --- |
| CC[C@H]1OC(=O)[C@@](C)(F)C(=O)[C@H](C)[C@@H](O[C@@H]2OC(C)CC(N(C)C)C2O)[C@](C)(OC)C[C@@H](C)C(=O)[C@H](C)[C@H]2N(C/C=C/Cn3nnc(-c4ccccn4)n3)C(=O)O[C@]12C (stereo partly shown) [FSM-100389] | 2 (≈ 2.41 µM) | > 32 | 1 (≈ 1.2 µM) | < 0.0312 | > 32 | < 0.0312 | 32 (≈ 38.6 µM) | < 0.0312 | > 32 | > 32 | 32 (≈ 38.6 µM) | 0.0625 | > 32 | > 32 | > 32 | 16 (≈ 19.3 µM) | 4 (≈ 4.82 µM) | > 32 | > 32 | 1 (≈ 1.2 µM) | MIC [5]: < 0.0312 µg/mL; MIC (K. pneumoniae SHV-12): > 32 µg/mL; MIC (A. baumannii ATCC 19606): 16 µg/mL (≈ 19.3 µM); MIC [6]: 32 µg/mL (≈ 38.6 µM); MIC (S. pyogenes ATCC 19615): < 0.0312 µg/mL; MIC (E. faecalis ATCC 29212): < 0.0312 µg/mL; MIC [7]: > 32 µg/mL; MIC [8]: > 32 µg/mL |
| CC[C@H]1OC(=O)[C@H](C)C(=O)[C@H](C)[C@@H](O[C@@H]2OC(C)CC(N(C)C)C2O)[C@](C)(OC)C[C@@H](C)C(=O)[C@H](C)[C@H]2N(C/C=C\Cn3cc(-c4cccc(N)c4)nn3)C(=O)O[C@]12C (stereo partly shown) [FSM-100423] | > 32 | > 32 | 2 (≈ 2.42 µM) | < 0.0312 | > 32 | < 0.0312 | > 32 | 0.125 (≈ 0.152 µM) | > 32 | > 32 | > 32 | 0.0625 | > 32 | > 32 | > 32 | 32 (≈ 38.8 µM) | 16 (≈ 19.4 µM) | > 32 | > 32 | 4 (≈ 4.85 µM) | MIC [5]: < 0.0312 µg/mL; MIC (K. pneumoniae SHV-12): > 32 µg/mL; MIC (A. baumannii ATCC 19606): 32 µg/mL (≈ 38.8 µM); MIC [6]: 32 µg/mL (≈ 38.8 µM); MIC (S. pyogenes ATCC 19615): < 0.0312 µg/mL; MIC (E. faecalis ATCC 29212): < 0.0312 µg/mL; MIC [7]: > 32 µg/mL; MIC [8]: > 32 µg/mL |
| CC[C@H]1OC(=O)[C@H](C)C(=O)[C@H](C)[C@@H](O[C@@H]2OC(C)CC(N(C)C)C2O)[C@](C)(OC)C[C@@H](C)C(=O)[C@H](C)[C@H]2N(CC3CC3Cn3cc(-c4cccc(N)c4)nn3)C(=O)O[C@]12C (stereo partly shown) [FSM-100429] | > 32 | > 32 | > 32 | < 0.0312 | > 32 | 0.0625 (≈ 0.0745 µM) | > 32 | 0.125 (≈ 0.149 µM) | > 32 | > 32 | > 32 | > 32 | > 32 | > 32 | > 32 | 32 (≈ 38.1 µM) | 32 (≈ 38.1 µM) | > 32 | > 32 | > 32 | MIC [5]: < 0.0312 µg/mL; MIC (K. pneumoniae SHV-12): > 32 µg/mL; MIC (A. baumannii ATCC 19606): > 32 µg/mL; MIC [6]: 32 µg/mL (≈ 38.1 µM); MIC (S. pyogenes ATCC 19615): < 0.0312 µg/mL; MIC (E. faecalis ATCC 29212): < 0.0312 µg/mL; MIC [7]: > 32 µg/mL; MIC [8]: > 32 µg/mL |
| CC[C@H]1OC(=O)[C@@](C)(F)C(=O)[C@H](C)[C@@H](O[C@@H]2OC(C)CC(N(C)C)C2O)[C@](C)(OC)C[C@@H](C)C(=O)[C@H](C)[C@H]2N(C/C=C\Cn3cc(-c4cccc(N)c4)nn3)C(=O)O[C@]12C (stereo partly shown) [FSM-100431] | > 32 | > 32 | > 32 | < 0.0312 | > 32 | < 0.0312 | > 32 | 0.125 (≈ 0.148 µM) | > 32 | > 32 | > 32 | 8 | > 32 | > 32 | > 32 | 16 (≈ 19 µM) | 32 (≈ 38 µM) | > 32 | > 32 | > 32 | MIC [5]: < 0.0312 µg/mL; MIC (K. pneumoniae SHV-12): > 32 µg/mL; MIC (A. baumannii ATCC 19606): 16 µg/mL (≈ 19 µM); MIC [6]: 8 µg/mL (≈ 9.49 µM); MIC (S. pyogenes ATCC 19615): < 0.0312 µg/mL; MIC (E. faecalis ATCC 29212): < 0.0312 µg/mL; MIC [7]: > 32 µg/mL; MIC [8]: > 32 µg/mL |
